Experimental data taken from US12516022B2, “Derivatives of aryl hydrocarbon receptor agonists” (AZORA THERAPEUTICS, INC., priority 2021, dated 2026).

Test: Time course of conversion to indirubin in FaSSIF at 37° C.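 Further: test compound, about 1-3 mg in 5 mL FaSSIF, sampled and analysed by UPLC-MS with PDA UV (210-400 nm), QDa mass and evaporative light scattering detection.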
Type: physicochemical
Conditions: FaSSIF 37° C. 24 h

| Compound | indirubin | indirubin methylene alcohol | starting material (prodrug compound) |
| --- | --- | --- | --- |
| CNCCNC(=O)N1C(=O)/C(=C2\Nc3ccccc3C2=O)c2ccccc21.Cl [drawing 264] | 0% | 0% | 100% |
| CN1CCN(CN2C(=O)/C(=C3\Nc4ccccc4C3=O)c3ccccc32)CC1 [drawing 265] | 30% | 0% | 53% |
| O=C1/C(=C2/C(=O)N(CN3CCC3)c3ccccc32)Nc2ccccc21 [drawing 266] | 20% | 7% | 62% |

Same assay, conditions: FaSSIF 37° C., 15 min

| Compound | indirubin | indirubin methylene alcohol | starting material (prodrug compound) |
| --- | --- | --- | --- |
| CNCCNC(=O)N1C(=O)/C(=C2\Nc3ccccc3C2=O)c2ccccc21.Cl [drawing 264] | 0% | 0% | 100% |
| CN1CCN(CN2C(=O)/C(=C3\Nc4ccccc4C3=O)c3ccccc32)CC1 [drawing 265] | 8% | 0% | 80% |
| O=C1/C(=C2/C(=O)N(CN3CCC3)c3ccccc32)Nc2ccccc21 [drawing 266] | 9% | 5% | 72% |

Same assay, conditions: FaSSIF 37° C., 30 min

| Compound | indirubin | indirubin methylene alcohol | starting material (prodrug compound) |
| --- | --- | --- | --- |
| CNCCNC(=O)N1C(=O)/C(=C2\Nc3ccccc3C2=O)c2ccccc21.Cl [drawing 264] | 0% | 0% | 100% |
| CN1CCN(CN2C(=O)/C(=C3\Nc4ccccc4C3=O)c3ccccc32)CC1 [drawing 265] | 12% | 0% | 74% |
| O=C1/C(=C2/C(=O)N(CN3CCC3)c3ccccc32)Nc2ccccc21 [drawing 266] | 8% | 5% | 79% |

Same assay, conditions: FaSSIF 37° C., 1 h

| Compound | indirubin | indirubin methylene alcohol | starting material (prodrug compound) |
| --- | --- | --- | --- |
| CNCCNC(=O)N1C(=O)/C(=C2\Nc3ccccc3C2=O)c2ccccc21.Cl [drawing 264] | 0% | 0% | 100% |
| CN1CCN(CN2C(=O)/C(=C3\Nc4ccccc4C3=O)c3ccccc32)CC1 [drawing 265] | 11% | 0% | 77% |
| O=C1/C(=C2/C(=O)N(CN3CCC3)c3ccccc32)Nc2ccccc21 [drawing 266] | 10% | 5% | 80% |

Same assay, conditions: FaSSIF 37° C., 2 h

| Compound | indirubin | indirubin methylene alcohol | starting material (prodrug compound) |
| --- | --- | --- | --- |
| CNCCNC(=O)N1C(=O)/C(=C2\Nc3ccccc3C2=O)c2ccccc21.Cl [drawing 264] | 0% | 0% | 100% |
| CN1CCN(CN2C(=O)/C(=C3\Nc4ccccc4C3=O)c3ccccc32)CC1 [drawing 265] | 18% | 0% | 68% |
| O=C1/C(=C2/C(=O)N(CN3CCC3)c3ccccc32)Nc2ccccc21 [drawing 266] | 13% | 4% | 75% |

Same assay, conditions: FaSSIF 37° C., over a 24 hour period

| Compound | Conversion to indirubin |
| --- | --- |
| CNCCNC(=O)N1C(=O)/C(=C2\Nc3ccccc3C2=O)c2ccccc21.Cl [drawing 264] | 0-20% |
| CN1CCN(CN2C(=O)/C(=C3\Nc4ccccc4C3=O)c3ccccc32)CC1 [drawing 265] | 0-20% |
| O=C1/C(=C2/C(=O)N(CN3CCC3)c3ccccc32)Nc2ccccc21 [drawing 266] | 0-20% |

Test: Stability of indirubin prodrugs in simulated fluids (FaSSIF, FaSSGF), 24 h at 37° C., UPLC-MS
Type: physicochemical
Conditions: FaSSGF 37° C. 24 h
Procedure: (§1) 10.41 g fasted state simulated intestinal fluid (FaSSIF) buffer concentrate was dissolved in 240.3 g deionized water and 560 mg FaSSIF powder added. The mixture was stirred until complete dissolution observed. The test compound (approx. 1-3 mg) was placed in 5.00 mL of FaSSIF solution. Samples of the solution with the test compound were taken after 24 hours in at 37° C. (oven-controlled temperature).
as §1, with “36.78” for “10.41”, “gastric” for “intestinal”, “(FaSSGF)” for “(FaSSIF)”, “961.9” for “240.3”, “60” for “560”, “FaSSGF” for “FaSSIF”
UPLC-MS analysis of the samples taken at 24 hours was carried out on a Waters Acquity UPLC system consisting of an Acquity I-Class Sample Manager-FL, Acquity I-Class Binary Solvent Manager and an Acquity UPLC Column Manager. UV detection was afforded using an Acquity UPLC PDA detector (scanning from 210 to 400 nm), whilst mass detection was achieved using an Acquity QDa detector (mass scanning from 100-1250 Da; positive and negative modes simultaneously), and ELS detection was achieved using an Acquity UPLC ELS Detector. A Waters Acquity UPLC BEH C18 column (2.1 Å˜50 mm, […]) was used to separate the analytes. Samples were prepared by dissolution (with or without sonication) into 1 mL of 50% (v/v) MeCN in water. The resulting solutions were then filtered through a […] syringe filter before submitting for analysis. All of the solvents, including formic acid and 36% ammonia solution, were purchased as the HPLC grade.

| Compound | Fraction (percent) of indirubin | Fraction (percent) of starting material (SM) |
| --- | --- | --- |
| C=CCOC(=O)N1C(=O)/C(=C2\Nc3ccccc3C2=O)c2ccccc21 | 0% | 100% |
| O=C1/C(=C2/C(=O)N(CS(=O)(=O)c3ccccc3)c3ccccc32)Nc2ccccc21 | 0% | 100% |
| COCN1C(=O)/C(=C2\Nc3ccccc3C2=O)c2ccccc21 | 2% | 100% |
| O=C1Nc2ccccc2/C1=C1/Nc2ccccc2/C1=N\O | 0% | 100% |
| O=C(O)CCC(=O)OCN1C(=O)/C(=C2\Nc3ccccc3C2=O)c2ccccc21 | 0% | 100% |
| CCCCCCCCCCC(=O)N1C(=O)/C(=C2\Nc3ccccc3C2=O)c2ccccc21 | 0% | 100% |
| O=C1/C(=C2/C(=O)N(C(=O)CCCN3CCOCC3)c3ccccc32)Nc2ccccc21 | 0% | 100% |
| CN(C)CCCCNC(=O)N1C(=O)/C(=C2\Nc3ccccc3C2=O)c2ccccc21 | 0% | 100% |
| O=C1/C(=C2/C(=O)N(C(=O)NCCNS(=O)(=O)c3ccc([N+](=O)[O-])cc3)c3ccccc32)Nc2ccccc21 | 0% | 100% |
| CN(C)CCNC(=O)N1C(=O)/C(=C2\Nc3ccccc3C2=O)c2ccccc21 | 0% | 100% |
| CN1CCN(CCNC(=O)N2C(=O)/C(=C3\Nc4ccccc4C3=O)c3ccccc32)CC1 | 2% | 93% |
| CC(=O)NCCNC(=O)N1C(=O)/C(=C2\Nc3ccccc3C2=O)c2ccccc21 | 0% | 100% |
| CCOC(=O)N1C(=O)/C(=C2\Nc3ccccc3C2=O)c2ccccc21 | 0% | 100% |
| Cl.NCCNC(=O)N1C(=O)/C(=C2\Nc3ccccc3C2=O)c2ccccc21 | 0% | 100% |
| O=C1/C(=C2/C(=O)N(CO)c3ccccc32)Nc2ccccc21 [drawing 219] | 13% | 87% |
| O=C1/C(=C2/C(=O)N(C(=O)NC3CCOCC3)c3ccccc32)Nc2ccccc21 [drawing 236] | 13% | 68% |

The remaining lines, values ahead:

| Fraction (percent) of indirubin | Fraction (percent) of starting material (SM) | Compound |
| --- | --- | --- |
| 3% | 94% | CC(=O)OCN1C(=O)/C(=C2\Nc3ccccc3C2=O)c2ccccc21 |
| 0% | 100% | O=C1/C(=C2/C(=O)N(CSc3ccccc3)c3ccccc32)Nc2ccccc21 |
| 0% | 100% | O=C1/C(=C2/C(=O)N(COc3ccccc3)c3ccccc32)Nc2ccccc21 |
| 0% | 100% | CCOC(=O)CCC(=O)N1C(=O)/C(=C2\Nc3ccccc3C2=O)c2ccccc21 |
| 0% | 100% | O=C1/C(=C2/C(=O)N(C(=O)N3CCOCC3)c3ccccc32)Nc2ccccc21 |
| 0% | 100% | CN1CCC(NC(=O)N2C(=O)/C(=C3\Nc4ccccc4C3=O)c3ccccc32)CC1=O (stereo not shown) |
| 0% | 100% | CN(C)CCCNC(=O)N1C(=O)/C(=C2\Nc3ccccc3C2=O)c2ccccc21 |
| 0% | 100% | CS(=O)(=O)NCCNC(=O)N1C(=O)/C(=C2\Nc3ccccc3C2=O)c2ccccc21 |
| 7% | 86% | Cl.NCCCNC(=O)N1C(=O)/C(=C2\Nc3ccccc3C2=O)c2ccccc21 |
| 1% | 93% | O=C1/C(=C2/C(=O)N(C(=O)NCCNS(=O)(=O)C(F)(F)F)c3ccccc32)Nc2ccccc21 |
| 100% | 0% | CCN(CC)CN1C(=O)/C(=C2\Nc3ccccc3C2=O)c2ccccc21 [drawing 221] |

Same assay, conditions: FaSSIF 37° C. 24 h

| Compound | Fraction (percent) of indirubin | Fraction (percent) of starting material (SM) |
| --- | --- | --- |
| C=CCOC(=O)N1C(=O)/C(=C2\Nc3ccccc3C2=O)c2ccccc21 | 2% | 88% |
| O=C1/C(=C2/C(=O)N(CS(=O)(=O)c3ccccc3)c3ccccc32)Nc2ccccc21 | 0% | 100% |
| COCN1C(=O)/C(=C2\Nc3ccccc3C2=O)c2ccccc21 | 2% | 91% |
| O=C1Nc2ccccc2/C1=C1/Nc2ccccc2/C1=N\O | 0% | 100% |
| O=C(O)CCC(=O)OCN1C(=O)/C(=C2\Nc3ccccc3C2=O)c2ccccc21 | 0% | 100% |
| CCCCCCCCCCC(=O)N1C(=O)/C(=C2\Nc3ccccc3C2=O)c2ccccc21 | 0% | 100% |
| O=C1/C(=C2/C(=O)N(C(=O)CCCN3CCOCC3)c3ccccc32)Nc2ccccc21 | 0% | 100% |
| CN(C)CCCCNC(=O)N1C(=O)/C(=C2\Nc3ccccc3C2=O)c2ccccc21 | 0% | 100% |
| O=C1/C(=C2/C(=O)N(C(=O)NCCNS(=O)(=O)c3ccc([N+](=O)[O-])cc3)c3ccccc32)Nc2ccccc21 | 0% | 100% |
| CN(C)CCNC(=O)N1C(=O)/C(=C2\Nc3ccccc3C2=O)c2ccccc21 | 0% | 100% |
| CN1CCN(CCNC(=O)N2C(=O)/C(=C3\Nc4ccccc4C3=O)c3ccccc32)CC1 | 0% | 100% |
| CC(=O)NCCNC(=O)N1C(=O)/C(=C2\Nc3ccccc3C2=O)c2ccccc21 | 0% | 100% |
| CCOC(=O)N1C(=O)/C(=C2\Nc3ccccc3C2=O)c2ccccc21 | 0% | 100% |
| Cl.NCCNC(=O)N1C(=O)/C(=C2\Nc3ccccc3C2=O)c2ccccc21 | 0% | 100% |
| O=C1/C(=C2/C(=O)N(CO)c3ccccc32)Nc2ccccc21 [drawing 219] | 100% | 0% |
| O=C1/C(=C2/C(=O)N(COS(=O)(=O)O)c3ccccc32)Nc2ccccc21 [drawing 224] | 100% | 0% |
| O=C1/C(=C2/C(=O)N(C(=O)NC3CCOCC3)c3ccccc32)Nc2ccccc21 [drawing 236] | 10% | 57% |

Continued, values first:

| Fraction (percent) of indirubin | Fraction (percent) of starting material (SM) | Compound |
| --- | --- | --- |
| 0% | 100% | CC(=O)OCN1C(=O)/C(=C2\Nc3ccccc3C2=O)c2ccccc21 |
| 0% | 100% | O=C1/C(=C2/C(=O)N(CSc3ccccc3)c3ccccc32)Nc2ccccc21 |
| 0% | 100% | O=C1/C(=C2/C(=O)N(COc3ccccc3)c3ccccc32)Nc2ccccc21 |
| 0% | 100% | CCOC(=O)CCC(=O)N1C(=O)/C(=C2\Nc3ccccc3C2=O)c2ccccc21 |
| 0% | 100% | O=C1/C(=C2/C(=O)N(C(=O)N3CCOCC3)c3ccccc32)Nc2ccccc21 |
| 0% | 100% | CN1CCC(NC(=O)N2C(=O)/C(=C3\Nc4ccccc4C3=O)c3ccccc32)CC1=O (stereo not shown) |
| 1% | 94% | CN(C)CCCNC(=O)N1C(=O)/C(=C2\Nc3ccccc3C2=O)c2ccccc21 |
| 0% | 100% | CS(=O)(=O)NCCNC(=O)N1C(=O)/C(=C2\Nc3ccccc3C2=O)c2ccccc21 |
| 0% | 100% | Cl.NCCCNC(=O)N1C(=O)/C(=C2\Nc3ccccc3C2=O)c2ccccc21 |
| 0% | 100% | O=C1/C(=C2/C(=O)N(C(=O)NCCNS(=O)(=O)C(F)(F)F)c3ccccc32)Nc2ccccc21 |
| 100% | 0% | CCN(CC)CN1C(=O)/C(=C2\Nc3ccccc3C2=O)c2ccccc21 [drawing 221] |
| 19% | 50% | CN1CCN(CN2C(=O)/C(=C3\Nc4ccccc4C3=O)c3ccccc32)CC1 [drawing 222] |
